Measured values as given in patent US20130203069A1, “Dynamic Assay for Maintenance and Disruption of Tissue Level Organization and Architecture” (THE REGENTS OF THE UNIVERSITY OF CALIFORNIA, priority 2012, published 2013).

Columns and labels:
[1] = system: HMEC strain 240L (LEPs and MEPs); assay: Microwell self-organization assay; assay type: cell-based, human; conditions: for self-organization of LEPs and MEPs: actomyosin inhibitors (ML-7 3×10^−6 M, Y27632 10^−5 M) added at the beginning, refreshed every 24 h, over 48 h; for organization measured at 48 h: inhibitor added a single time after 24 h, when organization was already underway; for self-organization at the 24-h time point / differences in LEP:MEP ratios in the core and at the periphery by 48 h: inhibitor added a single time at 0 h; for differences in LEP:MEP ratios in the core and at the periphery by 48 h: P<0.01
Source text: Micropatterned substrata were made according to Tan et al. (2004) “Simple approach to micropattern cells on common culture substrates by tuning substrate wettability”. Tissue Eng 10:865-872, hereby incorporated by reference. Polydimethylsiloxane (PDMS) microwell arrays were formed by curing prepolymer with base:cure ratio of 10:1 (Sylguard 184) against a prepatterned master. The arrays of wells were peeled away and were cut into 1-cm^2 pieces that were affixed with a few microliters of uncured PDMS to the bottom of a 24-well plate (Mitek). Plates with microwells were UV oxidized for 7 min (UVO-Cleaner 42; Jelight Co.), blocked with 2 mg/mL BSA (Sigma) for 1 h under vacuum, and rinsed with PBS and M87A. All self-organizing experiments were conducted with HMEC strain 240L. Flow cytometry-sorted HMEC were stained with CM-DiI, SP-DiOC18 (Steinberg M S, (1962) On the mechanism of tissue reconstruction by dissociated cells. I. Population kinetics, differential adhesiveness, and the absence of directed migration. Proc Natl Acad Sci USA 48:1577-1582), or DiIC18(Wei C, et al., (2007) Self-organization and branching morphogenesis of primary salivary epithelial cells. Tissue Eng 13:721-735)-DS (Invitrogen), used at 1:1,000 in PBS for 5 min at 37° C. followed by 15 min at 4° C. Cells were washed extensively with medium after staining Dye-stained HMEC were mixed at a ratio of 1:1 (LEP:MEP) or 1:1 (randomly stained green:red HMEC cultures) and were resuspended in M87A at 1 million cells/mL. […] HMEC were imaged at 0, 24, or 48 h with a spinning disk confocal microscope (Carl Zeiss). Red and green fluorescence channels in images taken at the ˜25-μm z axis positions of 30 wells from each condition at each time point were binarized using the Threshold function, merged into a Z-stack, and then averaged using ImageJ software (National Institutes of Health). Gray-scaled average images corresponding to LEP and MEP were merged into a single image with red or green look-up tables applied to each average image.
Heat maps were generated. Briefly, heat maps were normalized to the highest intensity value and were used to quantify sorting using the expression log2(mean green pixel intensity/mean red pixel intensity). A script was written using MATLAB (Mathworks) to plot differential intensity as a function of the distance from the center and to compute the average plot from θ of 0-360° (Fig S2).

MEPs = assay: Atomic force microscopy measurement of stiffness (MEPs); assay type: cell-based, human; conditions: 45 cells per condition
Procedure: (§1) Once samples were equilibrated to 25° C., cell deformity was measured, and stiffness was calculated as previously described (Alcaraz J, et al., (2008) Laminin and biomimetic extracellular elasticity enhance functional differentiation in mammary epithelia. EMBO J 27:2829-2838.). The resulting data were plotted using Prism(GraphPad Software) (n=45).

LEPs = assay: Atomic force microscopy measurement of stiffness (LEPs); assay type: cell-based, human; conditions: 45 cells per condition
Procedure: as §1

E-cadherin = E-cadherin surface expression on LEPs and MEPs by flow cytometry; assay type: cell-based, human; conditions: Y27632 10−5 M or ML-7 3×10−6 M in HMEC medium for 6 h
Procedure: E-cadherin expression on LEP and MEP was measured by addition of anti-E-cadherin-A647 (clone 67A4; Biolegend) to the above mixture at 1:50.
(§2) To determine effects of inhibitors, Y27632 at 10−5 M (Calbiochem) or ML-7 at 3×10−6 M (Calbiochem) was added to HMEC medium for 6 h at 37° C. (5% CO2) before trypsinization and subsequent measurement of E-cadherin by FACS. To measure the ability of recEcad to bind to HMEC in presence of inhibitors, cells were suspended in their medium in Falcon tubes (to prevent adhesion to a culture surface) in the presence of Y27632 at 10−5M (Calbiochem), ML-7 at 3×10−6M (Calbiochem), or anti-E-cadherin (100 μg/mL; clone HECD-1; Invitrogen), or in calcium-free medium for 6 h at 37° C. (5% CO2). recEcad conjugated to human IgG Fc region was added at 100 μg/mL for 1 h on ice. HMEC then were washed with medium and incubated with anti-human IgG-A633 (1:500; Invitrogen) in their own medium.

HMEC cell surfaces = assay: Recombinant E-cadherin (recEcad) binding to HMEC cell surfaces by flow cytometry; assay type: cell-based, human; conditions: 6 h pretreatment/preincubation of HMEC in suspension; recEcad 100 μg/mL 1 h on ice
Procedure: as §2

mouse mammary organoids = conditions: time-lapse imaging studies; less catastrophic than in the HMEC microwell assay; cited from earlier work
HCT116 = HCT116 epithelial cell line (Sahai et al. 2002); cited from earlier work
MDCK = MDCK epithelial cell line (Sahai et al. 2002); cited from earlier work

SMILES | self-organization of LEPs and MEPs [1] | organization measured at 48 h [1] | self-organization at the 24-h time point [1] | differences in LEP:MEP ratios in the core and at the periphery by 48 h [1] | MEP stiffness (MEPs) | LEP stiffness (LEPs) | lineage-specific differences in E-cadherin expression (E-cadherin) | recEcad binding to HMEC surfaces (HMEC cell surfaces) | bilayered organization of mouse mammary organoids (mouse mammary organoids) | breakdown and recycling of mature adherens junctions (HCT116) | breakdown and recycling of mature adherens junctions (MDCK)
O=S(=O)(c1cccc2c(I)cccc12)N1CCCNCC1 [ML-7] | prevented self-organization | obliterated organization | prevented self-organization | differences in LEP:MEP ratios in the core and at the periphery were observed | unaffected | caused softening | did not change | did not prevent | disrupted the clean bilayered organization |  | 
C[C@@H](N)[C@H]1CC[C@H](C(=O)Nc2ccncc2)CC1 [Y27632] | prevented self-organization | preserved the self-organized LEP cores | prevented self-organization | differences in LEP:MEP ratios in the core and at the periphery were observed | unaffected | caused softening | did not change | did not prevent | disrupted the clean bilayered organization | unable to break down and recycle | unable to break down and recycle
